Data set [1] deals with B16-F10 mouse melanoma cells. The data set is described as follows: Melanin assay (extra- and intracellular melanin production). Particulars: B16-F10, 72 h at 37 °C, OD at 475 nm, α-MSH 10 nM, NAP, HPPH-NAP, MB, HPPH 1 µM, mean of three independent experiments. It is filed as cell-based. On the procedure:
B16-F10 mouse melanoma cells or human mid-pigmented melanoma cells FM55 were seeded in Nunc 6-well tissue culture plates using DMEM medium without phenol red. After overnight incubation of the cells at 37 °C, various photosensitizers (1 µM) or peptide conjugated photosensitizers (1 µM) were added at room temperature and the cells were incubated at 37 °C for 72 h. After three days of incubation, supernatants of cell (200 µL) were pipetted out from Nunc 6-well tissue culture plates as extracellular melanin pigment and three concurrent absorption measurements were taken at 475 nm using a Spectra Max MS microplate/cuvette reader (Fig. 3c,e). Adherent cells in the Nunc 6-well plates were detached with 0.02% EDTA and centrifuged at 2000 rpm for 3 min. […] Three concurrent absorption measurements were taken at 475 nm using a Spectra Max MS microplate/cuvette reader (Fig. 3d,f). […]
B16-F10 and FM55 melanin assays are represented as the average of three independent experiments expressed as Mean ± SEM. Differences between various groups were calculated using one way ANOVA post Bonferroni’s multiple comparison test and results were reported as significant if P-value was below 0.05. Phototoxicity SRB data of B16-F10, MeL, FM55 and N/TERT-1 was analyzed via student t test and significance was reported if P-value was below 0.05.

The next data set concerns B16-F10 melanoma cells. In words: Cell proliferation with LED light irradiation (Incucyte confluence). Particulars: 5 µM. It is filed as cell-based, mouse. The protocol: B16-F10 murine melanoma cells were seeded at a density of 3000–4000 cells per well in 96-well black-view Perkin-Elmer plates using DMEM medium without phenol red. After an overnight incubation at 37 °C, the medium was aspirated from the wells and varying concentrations of synthetic peptide-photosensitizer constructs diluted in DMEM medium were added to the cells. The cells were incubated in dark at 37 °C for 4 h and then washed twice with 1X PBS buffer (200 µL). Fresh medium (300 µL) was added to the wells before placing the plates in the Incucyte ZOOM live cell imaging machine to capture the images after every hour. Percentage of confluence was measured over a time period of 24–72 h. For skin keratinocyte cell line N/TERT-1, the starting confluence was 75–85% of cell density for the initial light experiments. The higher cell density was used to mimic the physiological condition in the body, where keratinocytes are present in much larger numbers (30:1) than melanocytes.
This combinatorial equipment comprises light irradiation system with multiple wavelengths LED (From UVA to near IR) assembled with well-established incucyte that contains incubator and light microscope. […] Incucyte light microscope was used to capture images of the cell growth at every hour or two, from which percentage confluence (i.e. cell densities) were calculated. […]

As for `CN(C)c1ccc2nc3ccc(=[N+](C)C)cc-3sc2c1` [MB, methylene blue], in data set [1], the “extra- and intracellular melanin production” value was “did not induce any melanin production”.
“2-(1-hexyloxyethyl)-2-devinyl pyropheophorbide [HPPH]”: the “extra- and intracellular melanin production” value in data set [1] is recorded as “did not induce any melanin production”. For the same molecule, the “light induced cytotoxicity (cell proliferation)” value is on record as “cytotoxicity was observed” in the data set with B16-F10 melanoma cells (B16-F10, 627 nm LED light 0.10 mW/cm^2, 48 h continuously) and “cytotoxicity was observed” in the data set on B16-F10 melanoma cells (B16-F10, 660 nm LED light 0.10 mW/cm^2, 48 h continuously).
